Results as given in patent publication US12162888B2, “Carboxamides as ubiquitin-specific protease inhibitors” (Valo Early Discovery, Inc., priority 2018, dated 2024).

Each molecule was assayed against T1, USP25 (USP25-His6, Boston Biochem E-546) (Homo sapiens, UniProt Q9UHP3) (assay: Ubiquitin-Rhodamine 110 Assay for USP25 Activity, Example A-3). Conditions: Ubiquitin-Rhodamine 110 assay, Example A-3; IC50 ranges; read-out: USP25 A-3 IC50.
T1 construct: His6 (C); purchased Boston Biochem E-546
T1 sequence (Q9UHP3 1-1055): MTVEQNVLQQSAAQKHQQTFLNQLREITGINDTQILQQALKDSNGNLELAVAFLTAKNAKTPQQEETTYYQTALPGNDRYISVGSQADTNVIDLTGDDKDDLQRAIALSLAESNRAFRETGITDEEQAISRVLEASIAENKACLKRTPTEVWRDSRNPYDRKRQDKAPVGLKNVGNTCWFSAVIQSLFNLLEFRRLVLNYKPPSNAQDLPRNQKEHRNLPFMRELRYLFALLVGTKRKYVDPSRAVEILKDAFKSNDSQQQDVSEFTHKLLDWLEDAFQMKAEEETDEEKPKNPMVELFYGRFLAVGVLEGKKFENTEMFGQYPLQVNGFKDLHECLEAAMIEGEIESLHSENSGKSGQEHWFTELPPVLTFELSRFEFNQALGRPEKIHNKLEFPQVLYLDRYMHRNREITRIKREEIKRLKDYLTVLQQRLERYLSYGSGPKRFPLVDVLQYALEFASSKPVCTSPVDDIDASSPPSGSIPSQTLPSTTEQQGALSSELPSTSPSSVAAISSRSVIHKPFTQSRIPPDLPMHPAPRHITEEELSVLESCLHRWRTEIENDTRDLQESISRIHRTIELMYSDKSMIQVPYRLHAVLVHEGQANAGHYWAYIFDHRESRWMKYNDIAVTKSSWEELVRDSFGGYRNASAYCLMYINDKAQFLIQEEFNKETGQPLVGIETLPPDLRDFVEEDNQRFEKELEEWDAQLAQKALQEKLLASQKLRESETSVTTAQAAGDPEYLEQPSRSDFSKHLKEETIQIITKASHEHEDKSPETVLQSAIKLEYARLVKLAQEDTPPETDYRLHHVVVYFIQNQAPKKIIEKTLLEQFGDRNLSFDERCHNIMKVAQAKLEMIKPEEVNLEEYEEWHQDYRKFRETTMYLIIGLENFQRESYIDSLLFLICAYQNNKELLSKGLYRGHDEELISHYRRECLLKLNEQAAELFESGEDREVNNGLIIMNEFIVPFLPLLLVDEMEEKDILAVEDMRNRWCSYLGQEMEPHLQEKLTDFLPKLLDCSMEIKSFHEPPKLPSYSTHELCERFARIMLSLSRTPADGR
Assay type: biochemical
Procedure: Example A-3: Biochemical Assay: Ubiquitin-Rhodamine 110 Assay for USP25 Activity
The assay was performed in a final volume of 9 μL in assay buffer containing 20 mM Tris-HCl (pH 8.0, (1M Tris-HCl, pH 8.0 solution; Corning 46-031-CM)), 3 mM BME (2-Mercaptoethanol; Sigma 63689-25ML-F), 0.03% BGG (0.22 μM filtered, Sigma, G7516-25G), and 0.01% Triton X-100 (Sigma, T9284-10L). Nanoliter quantities of 10-point, 3-fold serial dilution in DMSO was pre-dispensed into 1536 assay plates (Corning, #3724BC) for a final test concentration of 25 μM to 1.3 nM, top to lowest dose, respectively. Enzyme USP25, construct USP25-His6, (Boston Biochem E-546). Concentration and incubation times were optimized for the maximal signal-to-background while maintaining initial velocity conditions at a fixed substrate concentration. The final concentration of the enzyme in the assay was […]. Final substrate (Ub-Rh110; Ubiquitin-Rhodamine 110, R&D Systems #U-555) concentration was 25 nM with [Ub-Rh110]<<Km. 3 μL of 2× enzyme was added to assay plates (pre-stamped with compound) preincubated with […] for 30 minutes and then 3 μL of 2× Ub-Rh110 was added to assay plates. Plates were incubated for 45 minutes at room temperature before addition of 3 μL of stop solution (final concentration of 10 mM citric acid (Sigma, 251275-500G)). Fluorescence was read on the Envision (Excitation at 485 nm and Emission at 535 nm; Perkin Elmer) or on the PheraSTAR (Excitation at 485 nm and Emission at 535 nm; BMG Labtech).
For assay formats Example A-1(a), A-1(b), and A-2, data were reported as percent inhibition compared with control wells based on the following equation: % inh=1−((FLU−AveLow)/(AveHigh−AveLow)) where FLU=measured Fluorescence, AveLow=average Fluorescence of no enzyme control (n=16), and AveHighh=average Fluorescence of DMSO control (n=16). IC50 values were determined by curve fitting of the standard 4 parameter logistic fitting algorithm included in the Activity Base software package: IDBS XE Designer Model 205. Data is fitted using the Levenburg Marquardt algorithm.
Work on `Cc1ccc2c(N)c(C(=O)N[C@H]3COc4cc(N5CC[C@@H]6CCC(N)C[C@@H]65)ccc4C3)sc2n1` (stereo in doubt) [Example 234, N-[(3R)-7-[(3aS,6S,7aS)-6-amino-octahydro-1H-indol-1-yl]-3,4-dihydro-2H-1-benzopyran-3-yl]-3-amino-6-methylthieno[2,3-b]pyridine-2-carboxamide] yielded an IC50 of 0.05 to 0.2 µM.

Same assay, conditions: Ubiquitin-Rhodamine 110 assay, Example A-3; read-out: USP25 A-3 IC50 range
With `Cc1ccc2c(N)c(C(=O)N[C@H]3CCc4nc(N5C[C@@H](N)[C@@]6(CCOC6)C5)ccc4C3)sc2n1` (single isomer, unassigned) [Example 431] the IC50 was > 2 µM. In the case of `Cc1ccc2c(N)c(C(=O)N[C@H]3CCc4nc(N5C[C@H](N)[C@]6(CCOC6)C5)ccc4C3)sc2n1` [Example 430, 3-amino-N-[(6S)-2-[(5S,9R)-9-amino-2-oxa-7-azaspiro[4.4]nonan-7-yl]-5,6,7,8-tetrahydroquinolin-6-yl]-6-methylthieno[2,3-b]pyridine-2-carboxamide], the IC50 is reported as > 2 µM. With `CN[C@@H]1CN(c2ccc3c(n2)CC[C@H](NC(=O)c2sc4nc(C)ccc4c2N)C3)C[C@H]1C(F)F` [Example 377, 3-amino-N-[(6S)-2-[(3R,4S)-3-(difluoromethyl)-4-(methylamino)pyrrolidin-1-yl]-5,6,7,8-tetrahydroquinolin-6-yl]-6-methylthieno[2,3-b]pyridine-2-carboxamide] the IC50 was > 2 µM. Molecule `Cc1ccc2c(N)c(C(=O)N[C@H]3CCc4nc(N5C[C@H](CF)[C@@H](N)C5)ccc4C3)sc2n1` [Example 384, 3-amino-N-[(6S)-2-[(3R,4S)-3-amino-4-(fluoromethyl)pyrrolidin-1-yl]-5,6,7,8-tetrahydroquinolin-6-yl]-6-methylthieno[2,3-b]pyridine-2-carboxamide] has an IC50 of 0.2 to 2 µM. `CC(=O)N[C@@H]1CN(c2ccc3c(n2)CC[C@H](NC(=O)c2sc4nc(C)ccc4c2N)C3)C[C@H]1C(F)F` [Example 372, 3-amino-N-[(6S)-2-[(3R,4S)-3-(difluoromethyl)-4-acetamidopyrrolidin-1-yl]-5,6,7,8-tetrahydroquinolin-6-yl]-6-methylthieno[2,3-b]pyridine-2-carboxamide] was tested, and the IC50 was > 2 µM. With `CCn1ccc2cc(C(=O)N[C@H]3CCc4nc(N5C[C@H](NC)[C@@H](OC)C5)ccc4C3)cnc21` [Example 402, 1-ethyl-N-[(6S)-2-[(3S,4S)-3-methoxy-4-(methylamino)pyrrolidin-1-yl]-5,6,7,8-tetrahydroquinolin-6-yl]-1H-pyrrolo[2,3-b]pyridine-5-carboxamide] the IC50 was > 2 µM. For `CCn1ccc2cc(C(=O)N[C@H]3CCc4nc(N5C[C@@H](N)[C@H](C(F)F)C5)ccc4C3)cnc21` [Example 371, N-[(6S)-2-[(3S,4R)-3-amino-4-(difluoromethyl)pyrrolidin-1-yl]-5,6,7,8-tetrahydroquinolin-6-yl]-1-ethyl-1H-pyrrolo[2,3-b]pyridine-5-carboxamide], the IC50 was > 2 µM. `Cc1ccc2c(N)c(C(=O)N[C@H]3CCc4nc(N5CC6(C[C@@H](N)CO6)C5)ccc4C3)sc2n1` [Example 398, 3-amino-N-[(6S)-2-[(7R)-7-amino-5-oxa-2-azaspiro[3.4]octan-2-yl]-5,6,7,8-tetrahydroquinolin-6-yl]-6-methylthieno[2,3-b]pyridine-2-carboxamide] gave an IC50 of 0.2 to 2 µM. For `Cc1ccc2c(N)c(C(=O)N[C@H]3CCc4nc(N5CCN[C@@H](C(F)F)C5)ccc4C3)sc2n1` [Example 375, 3-amino-N-[(6S)-2-[(3R)-3-(difluoromethyl)piperazin-1-yl]-5,6,7,8-tetrahydroquinolin-6-yl]-6-methylthieno[2,3-b]pyridine-2-carboxamide], the IC50 was > 2 µM. For `Cc1ccc2c(N)c(C(=O)N[C@H]3CCc4nc(N5C[C@@H]6CCN[C@H](C5)C6(F)F)ccc4C3)sc2n1` [Example 367, 3-amino-N-[(6S)-2-[(1R,5S)-9,9-difluoro-2,7-diazabicyclo[3.3.1]nonan-7-yl]-5,6,7,8-tetrahydroquinolin-6-yl]-6-methylthieno[2,3-b]pyridine-2-carboxamide], the IC50 was 0.05 to 0.2 µM. `CCn1ccc2cc(C(=O)N[C@H]3CCc4nc(N5C[C@@H](N)C6(COC6)C5)ccc4C3)cnc21` [Example 404, N-[(6S)-2-[(8S)-8-amino-2-oxa-6-azaspiro[3.4]octan-6-yl]-5,6,7,8-tetrahydroquinolin-6-yl]-1-ethyl-1H-pyrrolo[2,3-b]pyridine-5-carboxamide] was tested, and the IC50 was > 2 µM. `Cc1ccc2c(N)c(C(=O)N[C@H]3CCc4nc(N5C[C@H](C(F)F)[C@@H](N)C5)ncc4C3)sc2n1` [Example 380, 3-amino-N-[(6S)-2-[(3R,4S)-3-amino-4-(difluoromethyl)pyrrolidin-1-yl]-5,6,7,8-tetrahydroquinazolin-6-yl]-6-methylthieno[2,3-b]pyridine-2-carboxamide] was tested, and the IC50 was > 2 µM. Work on `CO[C@]12CCN[C@@H]1CN(c1ccc3c(n1)CC[C@H](NC(=O)c1sc4nc(C)ccc4c1N)C3)C2` [Example 435, N-[(6S)-2-[(3aS,6aR)-3a-methoxy-octahydropyrrolo[2,3-c]pyrrol-5-yl]-5,6,7,8-tetrahydroquinolin-6-yl]-3-amino-6-methylthieno[2,3-b]pyridine-2-carboxamide] yielded an IC50 of 0.2 to 2 µM. `COC[C@H]1[C@H](N)CCN1c1ccc2c(n1)CC[C@H](NC(=O)c1sc3nc(C)ccc3c1N)C2` [Example 419, 3-amino-N-[(6S)-2-[(2R,3R)-3-amino-2-(methoxymethyl)pyrrolidin-1-yl]-5,6,7,8-tetrahydroquinolin-6-yl]-6-methylthieno[2,3-b]pyridine-2-carboxamide] was tested, and the IC50 was > 2 µM. Molecule `Cc1ccc2c(N)c(C(=O)N[C@H]3CCc4nc(N5C6CC(N)CC5CS(=O)(=O)C6)ccc4C3)sc2n1` (stereo partly drawn) [Example 429, 3-amino-N-[(6S)-2-{7-amino-3,3-dioxo-3λ-thia-9-azabicyclo[3.3.1]nonan-9-yl}-5,6,7,8-tetrahydroquinolin-6-yl]-6-methylthieno[2,3-b]pyridine-2-carboxamide] has an IC50 of 0.05 to 0.2 µM. Work on `COC[C@@]1(N)CCN(c2ccc3c(n2)CC[C@H](NC(=O)c2sc4nc(C)ccc4c2N)C3)C1` [Example 388, 3-amino-N-[(6S)-2-[(3R)-3-amino-3-(methoxymethyl)pyrrolidin-1-yl]-5,6,7,8-tetrahydroquinolin-6-yl]-6-methylthieno[2,3-b]pyridine-2-carboxamide] yielded an IC50 of 0.2 to 2 µM. With `Cc1ccc2c(N)c(C(=O)N[C@@H]3CCc4nc(N5C[C@@H](N)[C@H](C(F)F)C5)ncc4C3)sc2n1` [Example 382, 3-amino-N-[(6R)-2-[(3S,4R)-3-amino-4-(difluoromethyl)pyrrolidin-1-yl]-5,6,7,8-tetrahydroquinazolin-6-yl]-6-methylthieno[2,3-b]pyridine-2-carboxamide] the IC50 was > 2 µM.

Same assay, conditions: biochemical IC50 range, Ubiquitin-Rhodamine 110 assay, Example A-3; read-out: USP25 A-3
In the case of `Cc1ccc2c(N)c(C(=O)N[C@H]3COc4cc(N5CCNCC5)cc(F)c4C3)oc2n1` [Example 169, 3-amino-N-[(3R)-5-fluoro-7-(piperazin-1-yl)-3,4-dihydro-2H-1-benzopyran-3-yl]-6-methylfuro[2,3-b]pyridine-2-carboxamide], the IC50 is reported as > 2 µM.
